Measured values published in BigSolDB 2.1.

CC(=CC(C)=Nc1c(C)cc(C)cc1C)Nc1c(C)cc(C)cc1C
solubility (mole fraction)
Settings | 273.15 K | 278.15 K | 283.15 K | 288.15 K | 293.15 K | 298.15 K | 303.15 K
in THF | 0.215 | 0.233 | 0.253 | 0.273 | 0.295 | 0.317 | 0.346
in ethanol | 0.00285 | 0.00317 | 0.00373 | 0.00471 | 0.00561 | 0.00678 | 0.00849
in methanol | 0.0008 | 0.00094 | 0.00117 | 0.00137 | 0.00169 | 0.00205 | 0.00275
in n-hexane | 0.0989 | 0.106 | 0.124 | 0.148 | 0.181 | 0.216 | 0.255
in toluene | 0.189 | 0.211 | 0.236 | 0.264 | 0.295 | 0.33 | 0.372
